pIC50: −log10 of the molar value.
Key:
Caco-2 = assay: Cytotoxicity against human Caco-2 cells incubated upto 96 hrs by MTT assay; format: functional, cell-based; details: Caco-2, 96 h
HT-29 [1] = assay: Cytotoxicity against human HT-29 cells incubated upto 96 hrs by MTT assay; format: functional, cell-based; details: HT-29, 96 h
T84 = assay: Cytotoxicity against human T84 cells incubated upto 96 hrs by MTT assay; format: functional, cell-based; details: T84, 96 h
T-24 = assay: Cytotoxicity against human T24 cells assessed as inhibition of cell proliferation by propidium iodide assay; format: functional, cell-based
SF-268 = assay: Cytotoxicity against human SF-268 cells assessed as inhibition of cell proliferation by propidium iodide assay; format: functional, cell-based
HCT-116 [2] = assay: Cytotoxicity against human HCT-116 cells assessed as inhibition of cell proliferation by propidium iodide assay; format: functional, cell-based
HT-29 [3] = assay: Cytotoxicity against human HT-29 cells assessed as inhibition of cell proliferation by propidium iodide assay; format: functional, cell-based
[4] = tested on: Lung LXF 629L tumor cell line; assay: Cytotoxicity against human Lung LXF 629L tumor cell line assessed as inhibition of cell proliferation by propidium iodide assay; format: functional, cell-based
LXF-289 cell line = assay: Cytotoxicity against human LXF-289 cell line assessed as inhibition of cell proliferation by propidium iodide assay; format: functional, cell-based
LXFL 529 = assay: Cytotoxicity against human LXFL 529 cells assessed as inhibition of cell proliferation by propidium iodide assay; format: functional, cell-based
NCI-H460 = assay: Cytotoxicity against human NCI-H460 cells assessed as inhibition of cell proliferation by propidium iodide assay; format: functional, cell-based
MAXF401 cell line = assay: Cytotoxicity against human MAXF401 cells assessed as inhibition of cell proliferation by propidium iodide assay; format: functional, cell-based
MCF7 = assay: Cytotoxicity against human MCF7 cells assessed as inhibition of cell proliferation by propidium iodide assay; format: functional, cell-based
MEXF276L = assay: Cytotoxicity against human MEXF276L cells assessed as inhibition of cell proliferation by propidium iodide assay; format: functional, cell-based
MEXF514 = assay: Cytotoxicity against human MEXF514 cells assessed as inhibition of cell proliferation by propidium iodide assay; format: functional, cell-based
OVCAR-3 = assay: Cytotoxicity against human OVCAR-3 cells assessed as inhibition of cell proliferation by propidium iodide assay; format: functional, cell-based
PANC-1 = assay: Cytotoxicity against human PANC-1 cells assessed as inhibition of cell proliferation by propidium iodide assay; format: functional, cell-based
CWR22R = assay: Cytotoxicity against human 22Rv1 cells assessed as inhibition of cell proliferation by propidium iodide assay; format: functional, cell-based
DU-145 = assay: Cytotoxicity against human DU-145 cells assessed as inhibition of cell proliferation by propidium iodide assay; format: functional, cell-based
LNCaP = assay: Cytotoxicity against human LNCaP cells assessed as inhibition of cell proliferation by propidium iodide assay; format: functional, cell-based
PC-3M = assay: Cytotoxicity against human PC-3M cells assessed as inhibition of cell proliferation by propidium iodide assay; format: functional, cell-based
RXF 944 = assay: Cytotoxicity against human RXF 944 cells assessed as inhibition of cell proliferation by propidium iodide assay; format: functional, cell-based
RXF 393 = assay: Cytotoxicity against human RXF 393 cells assessed as inhibition of cell proliferation by propidium iodide assay; format: functional, cell-based
[5] = Cytotoxicity against human GXF 251L cells assessed as inhibition of cell proliferation by propidium iodide assay; format: functional, cell-based
[6] = Cytotoxicity against human MEXF 462NL cells assessed as inhibition of cell proliferation by propidium iodide assay; format: functional, cell-based
[7] = Cytotoxicity against human OVXF 1619L cells assessed as inhibition of cell proliferation by propidium iodide assay; format: functional, cell-based
[8] = Cytotoxicity against human OVXF 899L cells assessed as inhibition of cell proliferation by propidium iodide assay; format: functional, cell-based
[9] = Cytotoxicity against human RXF 486L cells assessed as inhibition of cell proliferation by propidium iodide assay; format: functional, cell-based
KB = assay: Cytotoxicity against human KB cells incubated for 48 hrs by SRB colorimetric assay; format: functional, cell-based
BC1 cell line = assay: Cytotoxicity against human BC1 cell line incubated for 48 hrs by SRB colorimetric assay; format: functional, cell-based; details: BC1, 48 h
NCI-H187 = assay: Cytotoxicity against human NCI-H187 cells incubated for 48 hrs by SRB colorimetric assay; format: functional, cell-based; details: NCI-H187, 48 h
[10] = Cytotoxicity against African green monkey Vero cells incubated for 48 hrs by SRB colorimetric assay; format: toxicity, cell-based, Chlorocebus sabaeus
NCI-H23 = assay: Growth inhibition of human NCI-H23 cells; format: functional
NUGC-3 = assay: Growth inhibition of human NUGC-3 cells; format: functional
HCT-116 [11] = assay: Cytotoxicity against human HCT-116 cells; format: functional, cell-based
HCT-116/VM46 = assay: Cytotoxicity against human HCT-116/VM46 cells; format: functional, cell-based
A2780 = assay: Cytotoxicity against human A2780 cells; format: functional, cell-based

C=C(C)[C@H]1CC=C(CO)CC1
4.11: pIC50 (Caco-2)
4.00: pIC50 (HT-29 [1])
3.80: pIC50 (T84)

C/C=C(\C)[C@H](O[C@@H]1O[C@H](CO)[C@@H](O)[C@H](O)[C@H]1O)[C@H](C)/C=C(C)/C=C/C/C(C)=C/Cc1nc(OC)cc(O)c1C
5.70: pIC50 (T-24) | pIC50 (SF-268) | pIC50 (HCT-116 [2]) | pIC50 (HT-29 [3]) | pIC50 [4] | pIC50 (LXF-289 cell line) | pIC50 (LXFL 529) | pIC50 (NCI-H460) | pIC50 (MAXF401 cell line) | pIC50 (MCF7) | pIC50 (MEXF276L) | pIC50 (MEXF514) | pIC50 (OVCAR-3) | pIC50 (PANC-1) | pIC50 (CWR22R) | pIC50 (DU-145) | pIC50 (LNCaP) | pIC50 (PC-3M) | pIC50 (RXF 944) | pIC50 (RXF 393) | pIC50 [5] | pIC50 [6] | pIC50 [7] | pIC50 [8] | pIC50 [9]

CO[C@H]1[C@H](O)[C@@H](O)[C@H](O[C@H](C[C@@]2(C)[C@H](C)CCC(=O)[C@@H]2C)/C(C)=C/Cc2c(O)c(Cl)c(C)c(C=O)c2O)O[C@@H]1CO
19 µg/mL: IC50 (KB)
6.9 µg/mL: IC50 at 48 h [10]
8.4 µg/mL: IC50 (BC1 cell line)
7.9 µg/mL: IC50 (NCI-H187)

CC(C)[C@H](CCCCCCCCCCCCC(=O)NCC(=O)O)O[C@@H]1O[C@H](COC(=O)CCC(=O)O)[C@@H](O)[C@H](O)[C@H]1O
17.8 µg/mL: GI50 (NUGC-3)
25.2 µg/mL: GI50 (NCI-H23)

CO[C@]12C=C[C@](C)(O1)[C@@H](OC(=O)/C=C/c1cn(C)cn1)C[C@H]1C(C)=CC[C@H](C(C)C)[C@H]1/C=C\2CO[C@@H]1OC[C@@H](O)[C@@H](O)[C@@H]1OC(C)=O [ELEUTHEROBIN]
8.00: pIC50 (HCT-116 [11]) | pIC50 (HCT-116/VM46) | pIC50 (A2780)
